Laboratory results from paper PMC3691018 (Bioorganic & medicinal chemistry letters, 2013).

The compounds below were run on HeLa (assay: not given).
Format: cell-based
`CNc1nc2ccc3nc(NC(=O)c4cc(OC)c(OC)c(OC)c4)sc3c2s1` [Compound 59] was tested, and the “Selectivity index (SI = CC50/IC50)” value was “greater than 500”.

Each compound was assayed against Bacillus anthracis DNA replicative helicase (Bacillus anthracis, UniProt A0A0J1HKT7) (assay: biochemical).
Format: biochemical
With `COc1cccc(C(=O)Nc2nc3ccc4nc(NC5CCCCC5)sc4c3s2)c1` [Compound 53] the “Activity vs B. anthracis helicase (in words)” value was “significantly reduced activity”.
With `COc1cc(/C=N/c2nc3ccc4nc(SC)sc4c3s2)cc(OC)c1OC` [Compound 65] the “Activity vs B. anthracis helicase (in words)” value was “lost activities” and the IC50 was over 100 µM.
In the case of `COc1cccc(C(=O)Nc2nc3ccc4nc(NC(C)C)sc4c3s2)c1` [Compound 51], the “Activity vs B. anthracis helicase (in words)” value is reported as “significantly reduced activity”.
`COc1cccc(C(=O)Nc2nc3ccc4nc(NCC(C)C)sc4c3s2)c1` [Compound 52] was tested, and the “Activity vs B. anthracis helicase (in words)” value was “modest inhibition”.
`COc1cc(CNc2nc3ccc4nc(SC)sc4c3s2)cc(OC)c1OC` [Compound 64] was tested, and the “Activity vs B. anthracis helicase (in words)” value was “lost activities” and the IC50 was over 100 µM.
In the case of `COc1cccc(C(=O)Nc2nc3ccc4nc(NCc5ccccc5)sc4c3s2)c1` [Compound 54], the “Activity vs B. anthracis helicase (in words)” value is reported as “significantly reduced activity”.
